Consider six molecules from patent US12516080B2, “Remdesivir and remdesivir analogs, solutions, and nanoparticle, liposomal, and microparticle compositions for treating viral infections” (priority 2020, dated 2026).

Read-outs that look alike come from different tables or passages of the source.

A short description of data set [1]: In-vitro plasma stability, mouse plasma. The format is in vitro ADME. Particulars: compared with remdesivir. The protocol:
(§1) For nucleoside triphosphate analysis, LC-MS/MS was performed by ion-pairing chromatography using LC 20AD UFLC (Shimadzu, Japan) couple with an API 5500 (AB Sciex, USA). The separation was achieved on a 50×2.1 mm Agilent 3.5 μm C18 column. The mobile phase consisted of 3 mM ammonium formate with 10 mM dimethylhexylamine in water (mobile phase A), and 0.1% formic Acid in ACN (mobile phase B). A multi-stage linear gradient initiated with 2% B for 1 min, increased to 95% B in 2 min and maintained with 95% B for 1 min at a flow rate of 0.4 mL/min. Detection was performed on negative ion mode and multiple reaction monitoring modes.
(§2) Remdesivir, analogs and their metabolites alanine metabolite and Nuc were analyzed on an X500R QTOF System (AB Sciex, USA). Chromatographic separation was obtained on a 50×2.1 mm Agilent 3.5 μm C18 column using constant flow rate of 0.6 mL/min. The gradient mobile phase consisted of 0.1% formic acid in water (mobile phase A) and 0.1% formic acid acetonitrile (mobile phase B), running from 5% B to 95% B within 3 min and then maintaining 95% B for 1 min. The eluent was introduced into quadrupole time-of-flight mass spectrometry by electrospray ionization (ESI) operated in positive modes.
(§3) All the analytes were quantified using 10-point standard curves ranging from 5 to 5000 ng/mL.
(§4) To test the in-vitro plasma stability, 5 ul of […] test compound (remdesivir, MMT4-70, MMT4-98, MMT5-1) was added to 495 ul human, hamster, and mouse plasma, respectively. The structures of MMT4-70, MMT4-98, MMT5-1 are shown below. Aliquot of 40 μL was pipetted from the reaction solution and stopped by the addition of 160 μL cold acetonitrile at different sampling time (0, 10 min, 30 min, 60 min and 120 min). The incubation solution was centrifuged at 3500 rpm for 10 minutes to precipitate protein. The supernatant was used for LC/MS/MS analysis.

Data set [2] is described as follows: In-vitro plasma stability, statements over human, hamster, and mouse plasma. The data set is classed as in vitro ADME. The settings on record: different plasmas. As for the experimental part: as §1, §2, §3, §4
Data set [3] can be described thus: In-vitro plasma stability, human plasma. The format is in vitro ADME. As for the experimental part:
as §1, §2
All the analytes were quantified using 10-point standard curves ranging from 5 to 5000 ng/mL. […]

Data set [4] can be described thus: Tissue targeting of formulations (concentration-time profiles and AUC in tissues). Particulars: hamsters, i.v. 10 mg/Kg; for parent compound concentration through all tissues: 0.5-24 hr, short time points. The format is in vivo. The protocol: as §1, §2, §3
Besides nano formulation, a cyclodextrin-based formulation was also prepared for MMT5-14. Briefly, 2% cremophor and 2% ethanol was added to dissolve the MMT5-14, followed by mixing with 20% SBE-CD. Two formulated MMT5-14 compounds together with remdesivir (marketed formulation) were i.v. administered to catheterized hamsters with dose as 10 mg/Kg. Each group has two hamsters. At different time points (0.5 hr, 1 hr, 4 hr, 7 hr and 24 hr), the hamsters were euthanized and samples including plasma, blood, blood vessel, heart, intestine, kidney, lung, lymph node, spleen, trachea, and others were collected for future LC-MS analysis.

Data set [5] in a line: Short-time PK test and initial tissue targeting (plasma, blood, lung). The settings on record: hamsters, i.v. 10 mg/Kg. The format is in vivo. The protocol:
as §1, §2, §3
Short-time PK test was used to compare different compounds. Five remdesivir analogs (MMT4-70, MMT4-98, MMT5-1, MMT5-14, and MMT5-15) were compared to remdesivir. The structures of MMT5-14 and MMT5-15 are shown below. Albumin nanocomplexes of the remdesivir analogs were made according to the following procedure: organic phase was prepared by dissolving the synthesized compounds (20 mg) into chloroform (1 ml). 20 ml of marketed HSA solution (5%) was then mixed with organic phase and dispersed vigorously by a rotor-stator homogenizer (Ultra-Turrax T25, 8K rpm-12K rpm, 5 min) to generate a milk-like emulsion. The emulsion was then processed by a high-pressure homogenizer (Nano DeBEE) with the parameters set as pressure=15,000 psi-20,000 psi, condensation temp=5° C., cycles=6. Remaining organic solvent in the product was removed by a rotatory evaporator. The final nano-suspension was filtered with 0.22 μm membrane and freeze dried (primary drying temp=−5° C. for 30 h and secondary drying temp=30° C. for 6 h). The vials were filled with nitrogen before sealing and stored at −20° C.
The formulations and remdesivir (marketed formulation) were i.v. administered to catheterized hamsters with dose of 10 mg/Kg. Each group had two hamsters. At different time points (0.25 hr, 1 hr, 2 hr and 4 hr), plasma was collected for future LC-MS analysis. At 4 hr time point, the hamsters were euthanized and blood and lung were collected for future LC-MS analysis.

A further data set concerns COVID-19 virus. Description: In vitro anti-COVID-19 virus activity of remdesivir (literature). The format is cell-based, SARS-CoV-2. The settings on record: assuming intracellular Nuc-TP accumulates more than 10-fold to extracellular remdesivir.
In a further data set the test system is AMJ2-C11 cells. Briefly: Cellular uptake of formulations, AMJ2-C11 cells. The data set is classed as cell-based. Particulars: 10 μM.
The conditions of data set [6]: marmosets, cited from earlier work.
For another data set, the system named is THP-1 cells. Briefly: Cellular uptake of formulations, THP-1 cells. The data set is classed as cell-based. The settings on record: 10 μM.
The conditions of data set [7]: cited from earlier work.
For the next data set, the system named is B24 cells. The settings on record: cited from earlier work.
A further data set deals with Calu-3 cells. Briefly: Cellular uptake of formulations, Calu-3 cells. The format is cell-based. Particulars: 10 μM.
For data set [8] the following is noted: mice, cited from earlier work.
Data set [9] concerns PBMC, monocytes, Hela, microphage, and HUVEC. The settings on record: multiple human and rhesus monkey cells; cited from earlier work.
The subject of another data set is human cells. The settings on record: in vitro metabolism; cited from earlier work.

For the molecule `CCCCCCCCCCCCOC(=O)[C@H](C)NP(=O)(OC[C@H]1O[C@@H](c2ccc3c(N)ncnn23)[C@H](O)[C@@H]1O)Oc1ccccc1` (stereo partly drawn) [MMT4-70], the “stability taking account of ALA generation” value (“stability taking account” below) in data set [1] is recorded as “similar/better stability”. The “overall stability compared with remdesivir” value in [2] is “more stable than remdesivir”.

For the molecule `CCCCCCCCCCCCOC(=O)[C@H](C)NP(=O)(OC[C@H]1O[C@@H](c2ccc3c(N)ncnn23)[C@H](O)[C@@H]1O)Oc1cccc2ccccc12` (stereo partly drawn) [MMT4-98], the “stability taking account” value in [1] is “similar/better stability”. Besides, the “overall stability compared with remdesivir” value in data set [2] is “more stable than remdesivir”.

On to `C[C@H](NP(=O)(OC[C@H]1O[C@@H](c2ccc3c(N)ncnn23)[C@H](O)[C@@H]1O)Oc1cccc2ccccc12)C(=O)OCc1ccccc1` (stereo partly drawn) [MMT5-1], for which the “stability taking account” value in data set [1] was “similar/better stability”. In addition, the “stability ranking in human plasma” value in data set [3] is given as “behaved best”. Further, in data set [2], the “overall stability compared with remdesivir” value is recorded as “more stable than remdesivir”.

With `CCCCCC/C=C\C/C=C\CCCCCCCCOC(=O)[C@H](C)NP(=O)(OC[C@H]1O[C@@H](c2ccc3c(N)ncnn23)[C@H](O)[C@@H]1O)Oc1ccccc1` (stereo partly drawn) [MMT5-14], in data set [4], the “ALA metabolite concentration in tissues compared with remdesivir” value is recorded as “higher” and the “parent compound concentration through all tissues” value is recorded as “much higher”. Besides, in data set [4] (all analyzed tissues), the “AUC of ALA compared with remdesivir” value is “higher AUCs” and the “AUC of the parent compound compared with remdesivir” value is listed as “higher AUCs”. Moreover, the “parent compound, MMT5-14 versus Nano-MMT5-14 groups” value in [4] (blood vessel, kidney, and trachea) is listed as “higher”. For the same molecule, the “active metabolite NTP accumulation” value in data set [4] (blood, lung, and spleen) is recorded as “behaved better”. For the same molecule, the “parent compound, MMT5-14 versus Nano-MMT5-14 groups, most tissues” value in data set [4] (most tissues) is given as “No significance”. In addition, the “stability and concentration in blood and lung tissue (reason for selection)” value in data set [5] is “balanced stability and high concentration in blood and lung tissue”.

Regarding `N#C[C@@]1(c2ccc3c(N)ncnn23)O[C@H](COP(=O)(O)OP(=O)(O)OP(=O)(O)O)[C@@H](O)[C@H]1O` [Nuc-TP], the EC50 – broadly, the concentration giving half of the maximal effect – in the data set with COVID-19 virus (read-out: EC50 of intracellular Nuc-TP against COVID-19 virus) was above 7.7 µM. For the same molecule, in the data set with COVID-19 virus (read-out: EC90 of intracellular Nuc-TP against COVID-19 virus), the EC90 – broadly, the concentration at which the effect reaches the 90% level – was above 17.6 µM.

For the molecule `CCC(CC)COC(=O)[C@H](C)N[P@](=O)(OC[C@H]1O[C@@](C#N)(c2ccc3c(N)ncnn23)[C@H](O)[C@@H]1O)Oc1ccccc1` [remdesivir, Remdesivir], the “alanine metabolite concentration in cells” value with AMJ2-C11 cells, in the data set with THP-1 cells and in the data set with Calu-3 cells was “higher concentrations” throughout. For the same molecule, the “generation of NTP in cells” value with AMJ2-C11 cells and in the data set with Calu-3 cells was “higher generation” each time. Moreover, the “parent compound concentration through all tissues” value in data set [4] is “quickly metabolized”. Besides, the “active metabolite NTP accumulation” value in data set [4] (blood vessel, heart, and lymph node) is listed as “better accumulation”. Also, in data set [4] (several tissues like heart and trachea), the “NUC concentration in tissues” value is “high concentration”. In addition, the “concentration of Nuc-TP in the lung” value was 800 to 1500 nM in [6] (i.v. bolus 10 mg/kg remdesivir); 800 to 1500 nM in [7] (monkey, 10 mg/kg remdesivir); around 3000 nM in data set [8] (25-50 mg/kg remdesivir). For the same molecule, the “remdesivir in the lungs” value in [6] (i.v. bolus 10 mg/kg) is reported as “not detectable”. For the same molecule, the “Nuc-TP concentration in PBMC” value in [7] (blood cells such as PBMC) is 30-40 PM. Moreover, the “concentration of remdesivir in the lung” value in [7] (monkey, 10 mg/kg) is given as “did not achieve measurable concentration”; in [8] (25-50 mg/kg) it was “did not achieve measurable concentration”. Also, the “plasma nucleoside monophosphate (Nuc-MP) concentration” value in data set [7] (monkey, i.v. 10 mg/kg remdesivir, for 12-24 hrs) was 0.5 to 1 µM. Further, the “remdesivir plasma concentration in 30 min” value in [7] (monkey, i.v. 10 mg/kg, 30 min) is listed as “below 0.5 μM”. Further, the remdesivir plasma concentration result in data set [7] (monkey, i.v. 10 mg/kg, initial) is listed as “several micromolar”. Besides, the “stability in plasma (plasma concentration change)” value in [5] (0.25-4 hr) is “quickly metabolized”. Moreover, the “ALA concentration in plasma” value in [5] (short time points) is “High concentration”. Further, the “NUC concentration in plasma” value in data set [5] (short time points) is recorded as “High concentration”. For the same molecule, in the data set with B24 cells, the “intracellular Nuc-TP accumulation relative to extracellular remdesivir” value is given as “more than 3 fold”. Besides, in [9], the “intracellular Nuc-TP versus extracellular concentration of remdesivir” value is 25-100 folds. For the same molecule, the other metabolites share in the data set on human cells is 45%. The “remdesivir converted into Nuc-TP” value in the data set with human cells was “approximately 55%”.
